How the values were obtained:
Experiment in all cases: Grape juice attraction trap set outside
Type in all cases: in vivo
[1] = system: Vespa crabro flavofasciata
Description: (§1) The inventors conducted the experiment at four places in Kagawa Prefecture Kinbuchi Forest Park. The experiment was conducted totally 4 times from Oct. 11 to Nov. 4, 2013, from Nov. 4 to Dec. 7, 2013, from Oct. 1 to Oct. 31, 2014, and from Oct. 31 to Dec. 9, 2014.
(§2) First, four 2 cm square holes were opened on the side of a 2 L capacity PET bottle, and 500 mL of grape juice was added thereto to prepare a control attraction trap to kill a Vespidae worker. As Test liquid example, 25 mL, 5 mL or 1 mL of 2-phenylethanol was added to the grape juice of the traps. […] Since all of the test sites were low mountainous and sloping areas and had many trees, each trap had to be suspended from the branch of live trees. As a result, the horizontal distances between a pair of control example trap and test liquid example trap could not be adjusted to the same, and the distance was from 1 m to 8.5 m. There were not only Vespidae worker but also male Vespidae among the killed Vespidae wasps in the attraction traps; however, the results of the control example and test liquid example were compared on the basis of the number of the killed Vespidae worker, since a Vespidae worker causes a stabbing accident and plays an important role in building a nest. In Table 8, “*” indicates the case where there is a significant difference at p<0.01 in the χ^2 test to which the correction of Yates is applied, and “**” indicates the case where there is a significant difference at p<0.001 in the same test. The result of the first experiment in 2013 is shown in Table 9, the result of the second experiment in 2013 is shown in Table 10, the result of the first experiment using 1% 2-phenylethanol in 2014 is shown in Table 11, the result of the second experiment in 2014 is shown in Table 12, the result of the first experiment using 0.1% 2-phenylethanol in 2014 is shown in Table 13, and the result of the second experiment in 2014 is shown in Table 14. In Tables 9 to 14, “*” indicates the case where there is a significant difference at p<0.05 in the t-test, “**” indicates the case where there is a significant difference at p<0.01 in the same test, and “***” indicates the case where there is a significant difference at p<0.001 in the same test.
(§3) In the first experiment and second experiment, the trap prepared by adding 25 mL of 2-phenylethanol to 500 mL of grape juice was used as the test liquid example of 5% 2-phenylethanol.
(§4) In the first experiment and second experiment, 10 traps prepared by adding 5 mL of 2-phenylethanol to 500 mL of grape juice and 10 traps prepared by adding 0.5 mL of 2-phenylethanol to 500 mL of grape juice were used respectively as the 2 kinds of test liquid examples of 1% 2-phenylethanol and 0.1% 2-phenylethanol to conduct the experiment.

[2] = system: Vespa simillima xanthoptera
Description: as §1, §2, §3, §4

Vespa mandarinia = system: Vespa mandarinia
Description: as §1, §2, §3, §4

Vespa analis = system: Vespa analis
Description: as §1, §2, §3, §4

[3] = system: Vespidae worker, all species
Description: as §1, §2, §3, §4

Vespa ducalis = system: Vespa ducalis
Description: as §1, §2, §3, §4

[4] = 0.1% 2-phenylethanol trap, first experiment 2014, 10 traps
[5] = 0.1% 2-phenylethanol trap, second experiment 2014, 10 traps
[6] = 1% 2-phenylethanol trap, first experiment 2014, 10 traps
[7] = 1% 2-phenylethanol trap, second experiment 2014, 10 traps
[8] = 5% 2-phenylethanol trap, first experiment 2013, 18 traps
[9] = 5% 2-phenylethanol trap, second experiment 2013, 18 traps

OCCc1ccccc1 [2-Phenylethanol, 2-phenylethanol]
Total number of killed worker (Average ± SD), Vespa crabro flavofasciata [1, 4]: (1.50 ± 1.27) | Total number of killed worker, Vespa crabro flavofasciata [1, 4]: 15 | Total number of killed worker (Average ± SD), Vespa crabro flavofasciata [1, 5]: (0.00 ± 0.00) | Total number of killed worker, Vespa crabro flavofasciata [1, 5]: 0 | Total number of killed worker (Average ± SD), Vespa crabro flavofasciata [1, 6]: (0.00 ± 0.00) | Total number of killed worker, Vespa crabro flavofasciata [1, 6]: 0 | Total number of killed worker (Average ± SD), Vespa crabro flavofasciata [1, 7]: (0.00 ± 0.00) | Total number of killed worker, Vespa crabro flavofasciata [1, 7]: 0 | Total number of killed worker (Average ± SD), Vespa crabro flavofasciata [1, 8]: (0.00 ± 0.00) | Total number of killed worker, Vespa crabro flavofasciata [1, 8]: 0 | Total number of killed worker (Average ± SD), Vespa crabro flavofasciata [1, 9]: (0.00 ± 0.00) | Total number of killed worker, Vespa crabro flavofasciata [1, 9]: 0 | Total number of killed worker (Average ± SD), Vespa simillima xanthoptera [2, 4]: (0.10 ± 0.32) | Total number of killed worker, Vespa simillima xanthoptera [2, 4]: 1 | Total number of killed worker (Average ± SD), Vespa simillima xanthoptera [2, 5]: (0.00 ± 0.00) | Total number of killed worker, Vespa simillima xanthoptera [2, 5]: 0 | Total number of killed worker (Average ± SD), Vespa simillima xanthoptera [2, 6]: (0.00 ± 0.00) | Total number of killed worker, Vespa simillima xanthoptera [2, 6]: 0 | Total number of killed worker (Average ± SD), Vespa simillima xanthoptera [2, 7]: (0.00 ± 0.00) | Total number of killed worker, Vespa simillima xanthoptera [2, 7]: 0 | Total number of killed worker (Average ± SD), Vespa simillima xanthoptera [2, 8]: (0.00 ± 0.00) | Total number of killed worker, Vespa simillima xanthoptera [2, 8]: 0 | Total number of killed worker (Average ± SD), Vespa simillima xanthoptera [2, 9]: (0.00 ± 0.00) | Total number of killed worker, Vespa simillima xanthoptera [2, 9]: 0 | Total number of killed worker (Average ± SD), Vespa mandarinia (Vespa mandarinia; [4]): (3.60 ± 5.58) | Total number of killed worker, Vespa mandarinia (Vespa mandarinia; [4]): 36 | Total number of killed worker (Average ± SD), Vespa mandarinia (Vespa mandarinia; [5]): (0.30 ± 0.95) | Total number of killed worker, Vespa mandarinia (Vespa mandarinia; [5]): 3 | Total number of killed worker (Average ± SD), Vespa mandarinia (Vespa mandarinia; [6]): (0.00 ± 0.00) | Total number of killed worker, Vespa mandarinia (Vespa mandarinia; [6]): 0 | Total number of killed worker (Average ± SD), Vespa mandarinia (Vespa mandarinia; [7]): (0.00 ± 0.00) | Total number of killed worker, Vespa mandarinia (Vespa mandarinia; [7]): 0 | Total number of killed worker (Average ± SD), Vespa mandarinia (Vespa mandarinia; [8]): (0.00 ± 0.00) | Total number of killed worker, Vespa mandarinia (Vespa mandarinia; [8]): 0 | Total number of killed worker (Average ± SD), Vespa mandarinia (Vespa mandarinia; [9]): (0.00 ± 0.00) | Total number of killed worker, Vespa mandarinia (Vespa mandarinia; [9]): 0 | Total number of killed worker (Average ± SD), Vespa analis (Vespa analis; [4]): (0.60 ± 0.70) | Total number of killed worker, Vespa analis (Vespa analis; [4]): 6 | Total number of killed worker (Average ± SD), Vespa analis (Vespa analis; [5]): (0.00 ± 0.00) | Total number of killed worker, Vespa analis (Vespa analis; [5]): 0 | Total number of killed worker (Average ± SD), Vespa analis (Vespa analis; [6]): (0.00 ± 0.00) | Total number of killed worker, Vespa analis (Vespa analis; [6]): 0 | Total number of killed worker (Average ± SD), Vespa analis (Vespa analis; [7]): (0.00 ± 0.00) | Total number of killed worker, Vespa analis (Vespa analis; [7]): 0 | Total number of killed worker (Average ± SD), Vespa analis (Vespa analis; [8]): (0.00 ± 0.00) | Total number of killed worker, Vespa analis (Vespa analis; [8]): 0 | Total number of killed worker (Average ± SD), Vespa analis (Vespa analis; [9]): (0.00 ± 0.00) | Total number of killed worker, Vespa analis (Vespa analis; [9]): 0 | Number of effective trap ([3]; 0.1% 2-phenylethanol in grape juice, 2014, 1st experiment, 10 installed traps): 10 | Number of effective trap ([3]; 0.1% 2-phenylethanol in grape juice, 2014, 2nd experiment, 10 installed traps): 1 | Total number of killed worker (Average ± SD), All species [3, 4]: (6.20 ± 6.27) | Total number of killed worker, All species [3, 4]: 62 | Total number of killed worker (Average ± SD), All species [3, 5]: (0.30 ± 0.95) | Total number of killed worker, All species [3, 5]: 3 | Number of effective trap ([3]; 1% 2-phenylethanol in grape juice, 2014, 1st experiment, 10 installed traps): 0 | Number of effective trap ([3]; 1% 2-phenylethanol in grape juice, 2014, 2nd experiment, 10 installed traps): 0 | Total number of killed worker (Average ± SD), All species [3, 6]: (0.00 ± 0.00) | Total number of killed worker, All species [3, 6]: 0 | Total number of killed worker (Average ± SD), All species [3, 7]: (0.00 ± 0.00) | Total number of killed worker, All species [3, 7]: 0 | Number of effective trap ([3]; 5% 2-phenylethanol in grape juice, 2013, 1st experiment, 18 installed traps): 0 | Number of effective trap ([3]; 5% 2-phenylethanol in grape juice, 2013, 2nd experiment, 18 installed traps): 0 | Total number of killed worker (Average ± SD), All species [3, 8]: (0.00 ± 0.00) | Total number of killed worker, All species [3, 8]: 0 | Total number of killed worker (Average ± SD), All species [3, 9]: (0.00 ± 0.00) | Total number of killed worker, All species [3, 9]: 0 | time for which 2-phenylethanol contained in grape juice maintained its effect ([3]; 5% and 1% 2-phenylethanol traps): at least about one month | Total number of killed worker (Average ± SD), Vespa ducalis (Vespa ducalis; [4]): (0.40 ± 0.70) | Total number of killed worker, Vespa ducalis (Vespa ducalis; [4]): 4 | Total number of killed worker (Average ± SD), Vespa ducalis (Vespa ducalis; [5]): (0.00 ± 0.00) | Total number of killed worker, Vespa ducalis (Vespa ducalis; [5]): 0 | Total number of killed worker (Average ± SD), Vespa ducalis (Vespa ducalis; [6]): (0.00 ± 0.00) | Total number of killed worker, Vespa ducalis (Vespa ducalis; [6]): 0 | Total number of killed worker (Average ± SD), Vespa ducalis (Vespa ducalis; [7]): (0.00 ± 0.00) | Total number of killed worker, Vespa ducalis (Vespa ducalis; [7]): 0 | Total number of killed worker (Average ± SD), Vespa ducalis (Vespa ducalis; [8]): (0.00 ± 0.00) | Total number of killed worker, Vespa ducalis (Vespa ducalis; [8]): 0 | Total number of killed worker (Average ± SD), Vespa ducalis (Vespa ducalis; [9]): (0.00 ± 0.00) | Total number of killed worker, Vespa ducalis (Vespa ducalis; [9]): 0

From US11470844B2, “Vespidae wasp repellent” (KINP CO., LTD, priority 2015, dated 2022)
